# Measurements published in patent publication US20240011018A1, “MULTIPLEXED METHOD FOR ASSESSING GLOBAL OR GENOMIC LOCUS-SPECIFIC LEVELS OF CHROMATIN MODIFICATION” (Epigenica AB, priority 2020, published 2024).
# What was measured:
# H3K27ac = experiment: hmqChIP quantification of global H3K27ac level after drug treatment; format: cell-based, human; details: HCT116 and U2OS cells, 0.5 uM/5 uM, 40 h, anti-H3K27ac ChIP
# Method: (§1) A highly multiplexed experiment profiling global levels of three histone modifications in 96 samples: Two different cancer cell lines (human colon cancer HCT116, human osteosarcoma U2OS) were treated with 11 different drugs at 2 concentrations each (low, high) or DMSO as a control. Two replicates each (rep1, rep2) were performed of each treatment, totaling 96 samples. For U2OS, 9000 cells were seeded per 96-well, For HCT116, 6000 cells were seeded. After 24 h, drugs were added to each well, using the concentration specified in the following table:
# (§2) After further growth for 40 h, the cell number was approx. 50 000 cells per well. […]
# (§3) The final libraries were sequenced twice, to test the influence of sequencing two different random set of molecules on the quantification of global levels (that only scarcely covering the genome). The first time ˜1 Mio reads were sequenced in total for the four sub-pools (3 ChIP, 1 input), approximately 250 000 per sub-pool. […] The second time at total of 25 Mio reads were collected and either all of the reads were analyzed, or only a randomly selected subset of 1 mio reads. When all reads were analyzed, it corresponds to approx. 260,416 reads per sample. Input-normalized unique read count (INRCs) using DMSO controls as reference were calculated as described in Example 2 and plotted in a heatmap with grayscale and circle size reflecting the INRC.
# H3K27me3 in HCT116 cells = experiment: hmqChIP quantification of global H3K27me3 level after drug treatment, HCT116; format: cell-based, human; details: 0.5 uM/5 uM, 40 h, anti-H3K27me3 ChIP
# Method: as §1, §2, §3
# [1] = system: H3K27me3 in mouse embryonic stem cells; details: dataset according to Kumar and Elsässer 2019; cited from earlier work
# H3K27me3 in U2OS cells = experiment: hmqChIP quantification of global H3K27me3 level after drug treatment, U2OS; format: cell-based, human; details: 0.5 uM/5 uM, 40 h, anti-H3K27me3 ChIP
# Method: as §1, §2, §3
compound,measurement,setting,value
O=C(CCCCCCC(=O)Nc1ccccc1)NO [SAHA],global H3K27ac level (INRC relative to DMSO control),H3K27ac,increase H3K27ac acetylation
CCN(c1cc(C#CCN2CCOCC2)cc(C(=O)NCc2c(C)cc(C)[nH]c2=O)c1C)[C@H]1CC[C@H](N(C)CCOC)CC1 [EPZ011989],global H3K27me3 level (INRC relative to DMSO control),H3K27me3 in HCT116 cells,decrease H3K27me3
CCOC(=O)CCNc1cc(N2CCc3ccccc3CC2)nc(-c2ccccn2)n1 [GSK-J4],H3K27me3 level of treated mESC used as calibration cell source,[1],increase H3K27me3 above physiologic levels
CC(NC(=O)c1ccccc1/N=C/c1c(O)ccc2ccccc12)c1ccccc1 (centres unmarked) [Sirtinol],global H3K27me3 level (INRC relative to DMSO control),H3K27me3 in U2OS cells,decreases H3K27me3
same,global H3K27ac level (INRC relative to DMSO control),H3K27ac,increase H3K27ac acetylation
